The nature of this test: Inhibition of C-terminal FLAG-His-tagged full length human CTPS1 measured after 60 mins by ADP-Glo assay.

The source of these data is ChEMBL document CHEMBL5052818, “Aminopyrimidine derivatives as ctps1 inhibitors” (2019).

For orientation: IC50 means the concentration at which inhibition is half-maximal. Read a low IC50 as greater potency. As for `CC(C)(C(=O)Nc1ccc(-c2cccnc2)cc1F)c1ccnc(NS(=O)(=O)C2CC2)n1`, the concentration for half-maximal inhibition (IC50) is > 1000 nM.
For `CCC(C(=O)Nc1ccc(-c2cccnc2)cc1F)c1ccnc(NS(=O)(=O)C2CC2)n1` (stereo not drawn), the concentration for half-maximal inhibition (IC50) is > 1000 nM.
In the case of `CCC(C(=O)Nc1ccc(-c2cccnc2)cc1)c1ccnc(NS(=O)(=O)C2CC2)n1` (stereo not drawn), the IC50 is > 100 nM.
As for `CC(C)(C(=O)Nc1ccc(-c2cncnc2)cc1)c1ccnc(NS(=O)(=O)C2CC2)n1`, the IC50 is > 1000 nM.
On to `CCC(C(=O)Nc1ccc(-c2cncc(OCC(F)(F)F)c2)cc1)c1ccnc(NS(=O)(=O)C2CC2)n1` (stereo not drawn), for which the half-maximal inhibitory concentration (IC50) is > 100 nM.
On to `CCOc1cncc(-c2ccc(NC(=O)C3(c4ccnc(NS(=O)(=O)C5CC5)n4)CC3)cc2)n1`, for which the IC50 was ≤ 100 nM.
In the case of `CC(C)(C(=O)Nc1ccc(-c2cncc(F)c2)cc1)c1ccnc(NS(=O)(=O)C2CC2)n1`, the half-inhibitory concentration (IC50) was > 100 nM.
Consider `CC(C)(C(=O)Nc1ccc(-c2cncc(OC(F)F)c2)cc1)c1ccnc(NS(=O)(=O)C2CC2)n1`, for which the IC50 was ≤ 100 nM.
With `Cc1cncc(-c2ccc(NC(=O)C(C)(C)c3ccnc(NS(C)(=O)=O)n3)c(C)c2)n1` the figure was > 1000 nM; with `CC(C)Oc1cncc(-c2ccc(NC(=O)Cc3ccnc(NS(=O)(=O)C4CC4)n3)c(F)c2)n1`, ≤ 100 nM; with `CC(C)(C(=O)Nc1ccc(-c2cccc(C#N)c2)cc1)c1ccnc(NS(=O)(=O)C2CC2)n1`, > 1000 nM.
For `CCC(C(=O)Nc1ccc(-c2cnccn2)cc1F)c1ccnc(NS(=O)(=O)C2CC2)n1` (stereo not drawn), the concentration for half-maximal inhibition (IC50) was > 100 nM.
For `CCOc1cccc(-c2ccc(NC(=O)C(C)(C)c3ccnc(NS(=O)(=O)C4CC4)n3)cc2)c1`, the IC50 was > 10000 nM.
For `CCC(C(=O)Nc1ccc(-c2cncc(OCC(F)(F)F)c2)cn1)c1ccnc(NS(=O)(=O)C2CC2)n1` (stereo not drawn) the value was > 100 nM; for `CCOc1cncc(-c2ccc(NC(=O)C(CC)c3ccnc(NS(=O)(=O)C4CC4)n3)cc2)n1` (stereo not drawn), ≤ 100 nM.
On to `CCC(C(=O)Nc1ccc(-c2cncc(OC(C)C)c2)cc1)c1ccnc(NS(=O)(=O)C2CC2)n1` (stereo not drawn), for which the half-inhibitory concentration (IC50) was > 100 nM.
With `COc1cncc(-c2ccc(NC(=O)C(C)(C)c3ccnc(NS(=O)(=O)C4CC4)n3)cc2)c1` the figure was > 100 nM; with `Cc1cc(-c2cncc(C(F)(F)F)n2)ccc1NC(=O)C(C)(C)c1ccnc(NS(C)(=O)=O)n1`, > 100 nM.
On to `CCC(C(=O)Nc1ccc(-c2cncc(C(F)(F)F)c2)cc1)c1ccnc(NS(=O)(=O)C2CC2)n1` (stereo not drawn), for which the IC50 was > 100 nM.
In the case of `CCOc1cncc(-c2ccc(NC(=O)C(C)(C)c3nc(NS(=O)(=O)C4CC4)ncc3C)cc2)n1`, the half-maximal inhibitory concentration (IC50) is > 1000 nM.
With `O=C(Cc1ccnc(NS(=O)(=O)C2CC2)n1)Nc1ccc(-c2cccnc2)cc1` the figure was > 100 nM.
For `CCC(C(=O)Nc1ccc(-c2cncc(OCC(F)(F)F)n2)cc1)c1ccnc(NS(=O)(=O)C2CC2)n1` (stereo not drawn) the value was ≤ 100 nM.
Turning to `CCC(C(=O)Nc1ccc(-c2cncc(OC(C)C)n2)cc1F)c1ccnc(NS(=O)(=O)C2CC2)n1` (stereo not drawn), the half-inhibitory concentration (IC50) is ≤ 100 nM.
With `CC(C)(C(=O)Nc1ccc(-c2cncc(OC3CC3)n2)cc1)c1ccnc(NS(=O)(=O)C2CC2)n1`, the IC50 was > 100 nM.
On to `O=C(Cc1nc(NS(=O)(=O)C2CC2)ncc1F)Nc1ccc(-c2cccnc2)cc1`, for which the IC50 was > 1000 nM.
For `CC(C)(C(=O)Nc1ccc(-c2cccc(Cl)c2)cc1)c1ccnc(NS(=O)(=O)C2CC2)n1` the value was > 1000 nM.
With `CCC(C(=O)Nc1ccc(-c2cncc(C(F)(F)F)n2)cn1)c1ccnc(NS(=O)(=O)C2CC2)n1` (stereo not drawn) the figure was ≤ 100 nM.
For `CC(C)(C(=O)Nc1ccc(-c2cncc(OC3CC3)n2)cn1)c1ccnc(NS(=O)(=O)C2CC2)n1` the value was ≤ 100 nM.
Regarding `CCOc1cncc(-c2ccc(NC(=O)C(C)(C)c3ccnc(NS(=O)(=O)C4CC4)n3)cc2)n1`, the half-inhibitory concentration (IC50) is ≤ 100 nM.
With `CCOc1cncc(-c2ccc(NC(=O)C(C)(C)c3ccnc(NS(=O)(=O)C4CC4)n3)c(C#N)c2)n1` the figure was ≤ 100 nM; with `COc1cncc(-c2ccc(NC(=O)Cc3ccnc(NS(=O)(=O)C4CC4)n3)cc2)n1`, ≤ 100 nM; with `O=C(Cc1ccnc(NS(=O)(=O)C2CC2)n1)Nc1ccc(-c2cncc(C(F)(F)F)n2)cc1F`, ≤ 100 nM.
Consider `CCOc1cncc(-c2ccc(NC(=O)C(C)(C)c3ccnc(NS(=O)(=O)C4CCC4)n3)c(C)c2)n1`, for which the IC50 is > 100 nM.
